Experimental data published in patent US20240300997A1, “PROTEIN FOLDING AGENT” (TOHOKU UNIVERSITY, priority 2021, published 2024).

How the values were obtained:
native type β2m = target: T1, native type β2m (Homo sapiens, UniProt P61769); assay: β2m aggregation experiment by heating; assay type: biochemical; details: 1 mM thiol compound; for appearance of the solution after cooling (before centrifugation): 10 µM native type β2m, heated from 25° C. to 50° C., 10 minutes, cooled to 25° C., FIG. 8; for residual rate of the native type β2m in the supernatant liquid: after heating to 50° C. and centrifugation, absorbance at 280 nm, FIG. 9
T1 construct: made in house; host or cells: E. coli
Description: A buffer containing 10 µM of native type β2m (50 mM Tris-HCl, pH 7.5; 300 mM NaCl) was heated from 25° C. to 50° C., equilibrated for 10 minutes when the temperature reached 50° C., and then cooled to 25° C. For a supernatant liquid of the fraction obtained after centrifugation, a residual rate of the native type β2m in the supernatant liquid was measured by measuring an absorbance at 280 nm using a spectrophotometer.
For a buffer containing 10 µM of native type β2m (50 mM Tris-HCl, pH 7.5; 300 mM NaCl), 1 mM of the following thiol compound was added, and the obtained mixture was heated from 25° C. to 50° C., equilibrated for 10 minutes when the temperature reached 50° C., and then cooled to 25° C.
For a supernatant liquid of the fraction obtained after centrifugation, a residual rate of the native type β2m in the supernatant liquid was measured by measuring an absorbance at 280 nm using a spectrophotometer.

[1] = target: T2, reduced and denatured β2m (β2-microglobulin) (Homo sapiens, UniProt P61769); assay: Disulfide bond introduction ability into reduced and denatured β2m (reversed-phase HPLC); assay type: biochemical; details: 1 mM thiol compound and 0.2 mM disulfide compound
T2 construct: made in house; host or cells: E. coli
Description: β2m was expressed as a recombinant by an E. coli expression system, and the collected cells were suspended in lysate A (50 mM Tris-HCl, pH 8.1; 300 mM NaCl), followed by ultrasonic disintegration. The fraction obtained after centrifugation was incubated in the presence of 8 M urea and 20 mM DTT at pH 8.0 and 50° C. for 3 hours, followed by purification by reversed-phase column chromatography (Hitachi) using a Cosmosil 5C18-AR-II column. • Reference Document 1: M. Okumura, H. Kadokura, S. Hashimoto, K. Yutani, S. Kanemura, T. Hikima, Y. Hidaka, L. Ito, K. Shiba, S. Masui, D. Imai, S. Imaoka, H. Yamaguchi, K. Inaba, Inhibition of the functional interplay between endoplasmic reticulum (ER) oxidoreduclin-1α (Ero1α) and protein-disulfide isomerase (PDI) by the endocrine disruptor bisphenol A. J Biol Chem. 2014 289(39): 27004-27018. • Reference Document 2: J. S. Weissman, P. S. Kim, Reexamination of the folding of BPTI: predominance of native intermediates. Science 1991 253 (5026): 1386-93. • Reference Document 3: M. M. Lyles, H. F. Gilbert Catalysis of the oxidative folding of ribonuclease A by protein disulfide isomerase: dependence of the rate on the composition of the redox buffer. Biochemistry. 1991 30 (3): 613-9.
A buffer having the following combinations of 1 mM of a thiol compound and 0.2 mM of a disulfide compound (50 mM Tris-HCl, pH 7.5; 300 mM NaCl) was incubated at 30° C. with 10 μM of the reduced and denatured β2m prepared in the above 8), followed by a folding reaction.
The reaction solution was dispensed over time, followed by adding an equal amount of 6 M guanidine hydrochloric acid and 1.5 M HCl, and the disulfide bond introduction reaction was quenched. In order to identify the molecular species in the reaction solution, the resultant was subjected to reversed-phase HPLC, and an oxidation type (N) and a reduction type (R) of β2m were analyzed (FIG. 4A to FIG. 4C and FIG. 5). […]
Measurement and analysis conditions of the reversed-phase HPLC are shown below. 5C18-AR2 column (4.6×150 mm; NACALAI TESQUE) was used as a column, and an absorbance at 229 nm was detected. […]

T2 sequence (P61769 21-119): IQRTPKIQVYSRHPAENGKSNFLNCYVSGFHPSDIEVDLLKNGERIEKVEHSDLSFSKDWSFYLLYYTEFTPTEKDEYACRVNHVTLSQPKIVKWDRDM
T1 sequence (P61769 21-119): as above

Compound | appearance of the solution after cooling (before centrifugation) (native type β2m) | residual rate of the native type β2m in the supernatant liquid (native type β2m) | reaction rate constant of the disulfide bond introduction reaction (pseudo-first-order reaction) [1]
NCCNCCS [LDA-SH, 2-((2-aminoethyl)amino)ethane-1-thiol] | transparent | higher than that in the case of no additive and in the case of GSH | 
NCCNCCSSCCNCCN [LDA-SS] |  |  | 6.96×10^−4
NCC(S)CN [BDA-SH, 1,3-diaminopropane-2-thiol] | transparent | higher than that in the case of no additive and in the case of GSH | 
oxidized glutathione [GSSG, reference compound] |  |  | 1.12×10^−4
NCC(CN)SSC(CN)CN [BDA-SS] |  |  | 3.59×10^−2
